Reference: patent publication JP2019059697A, “置換された多環性ピリダジン誘導体およびそのプロドラッグ” (priority 2017, dated 2019)

System: influenza virus [インフルエンザウイルス]
Assay: microbe, parasite or virus in culture
Type: cell-based
Conditions: unidentified influenza virus, 72 h, read-out: 50% influenza-infected cell death inhibition concentration (EC50)

| Structure (SMILES) | EC50 [nM] |
| --- | --- |
| CCN1CN(C2c3ccccc3CCc3ccccc32)n2ncc(=O)c(O)c2C1=O [化合物I−2] | 207 |
| O=C1c2c(O)c(=O)cnn2N(C2c3ccccc3SCc3c2ccc(F)c3F)C2COCCN12 (single isomer, unassigned) [化合物I−1] | 18.2 |
